Assays:
[1] = tested on: Plasmodium falciparum; assay: Resistance index, ratio of IC50 for antiplasmodial activity against Plasmodium falciparum K1 to IC50 for antiplasmodial activity against Plasmodium falciparum D10; assay type: functional
[2] = tested on: Hemozoin; assay: Inhibition of Beta-hematin in Plasmodium falciparum
[3] = tested on: HeLa; assay: Antiproliferative activity against human HeLa cells assessed as cell growth inhibition; assay type: functional, cell-based
[4] = Therapeutic index, ratio of IC50 for antiproliferative activity against human HeLa cells to IC50 for antiplasmodial activity against Plasmodium falciparum K1; assay type: toxicity, cell-based; details: for selectivity ratio: HeLa cells, read-out: Ratio IC50
[5] = tested on: Plasmodium falciparum; assay: Antiplasmodial activity against Plasmodium falciparum K1; assay type: functional, organism-based
[6] = tested on: Plasmodium falciparum; assay: Antiplasmodial activity against Plasmodium falciparum D10; assay type: functional, organism-based
[7] = tested on: Plasmodium falciparum; assay: Antiplasmodial activity against Plasmodium falciparum gametocytes assessed as inhibition of gametocyte activation by [3H]hypoxanthine incorporation assay; assay type: functional, organism-based
[8] = tested on: Plasmodium falciparum; assay: Antiplasmodial activity against Plasmodium falciparum TM91C235; assay type: functional, organism-based
[9] = tested on: Plasmodium falciparum; assay: Antiplasmodial activity against Plasmodium falciparum W2; assay type: functional, organism-based
[10] = tested on: Plasmodium falciparum; assay: Antiplasmodial activity against Plasmodium falciparum gametocytes by [3H]hypoxanthine incorporation assay; assay type: functional, organism-based
[11] = tested on: Plasmodium yoelii; assay: Antimalarial activity against Plasmodium yoelii infected in swiss mouse assessed as reduction in parasitemia at 96 mg/kg, po relative to control; assay type: functional; set-up: scale not given: the % may be the effect or the level left
[12] = tested on: Caco-2; assay: Cytotoxicity against human Caco-2 cells assessed as reduction in cell viability; assay type: functional
[13] = tested on: Plasmodium berghei; assay: Antimalarial activity against liver stage Plasmodium berghei; assay type: functional, organism-based
[14] = tested on: Plasmodium berghei; assay: Antiplasmodial activity against Plasmodium berghei N infected in sc dosed mouse assessed as reduction in parasitemia; assay type: functional
[15] = tested on: Plasmodium falciparum; assay: Antiplasmodial activity against Plasmodium falciparum NF54; assay type: functional, organism-based
[16] = tested on: Plasmodium berghei; assay: Antimalarial activity against Plasmodium berghei infected in mouse assessed as reduction in parasitemia; assay type: functional; details: Plasmodium berghei
[17] = tested on: Plasmodium falciparum; assay: Antiplasmodial activity against Plasmodium falciparum FcM29; assay type: functional, organism-based
[18] = tested on: Plasmodium falciparum; assay: Antiplasmodial activity against Plasmodium falciparum; assay type: functional, organism-based
[19] = tested on: Plasmodium falciparum; assay: Antimalarial activity against chloroquine resistant Plasmodium falciparum FcB1; assay type: functional, organism-based
[20] = tested on: Plasmodium falciparum; assay: Antiplasmodial activity against chloroquine resistant Plasmodium falciparum; assay type: functional, organism-based
[21] = Stability of compound at pH 2 assessed as half life; assay type: physicochemical; details: buffer

## C[C@@H]1CC[C@H]2[C@@H](C)C(OCc3ccc(C(=O)N(CCNc4ccnc5cc(Cl)ccc45)CC(=O)NC(C)(C)C)cc3)O[C@@H]3O[C@]4(C)CC[C@@H]1[C@]32OO4 (stereo partly drawn)
[1]
  Ratio IC50: 0.6
[2]
  IC50: 0.44 equiv
[3]; Homo sapiens, HeLa
  IC50: 0.496 µM
[4]
  selectivity ratio: 26
[5]; Plasmodium falciparum, K1
  IC50: 0.019 µM
[6]; Plasmodium falciparum, D10
  IC50: 0.027 µM

## O[C@@H](c1cc(C(F)(F)F)nc2c(C(F)(F)F)cccc12)[C@H]1CCCCN1 [(S,R)-MEFLOQUINE]
[7]
  IC50: 5600 µM
[8]
  IC50: 0.13 µM
  IC90: 0.264 µM
[9]
  IC90: 0.64 µM
[10]
  IC50: 16500 µM

## C=C(c1ccccc1)C1COC2(CCC(NCCNc3ccnc4cc(Cl)ccc34)CC2)OO1 (stereo not drawn)
[11]
  Activity: 89%

## C=C(c1ccccc1)C1COC2(CCC(NCCCCNc3ccnc4cc(Cl)ccc34)CC2)OO1 (stereo not drawn)
[11]
  Activity: 89%

## COc1cc(NC(C)CCCNC(=O)C2CCC3(CC2)OOC2(OO3)C3CC4CC(C3)CC2C4)c2nccc(Br)c2c1 (stereo not drawn)
[12]
  CC50: > 50000 µM
[9]
  EC50: 0.061 µM
[13]
  EC50: 4.44 µM

## COc1cc(NC(C)CCCNC(=O)C2CCC3(CC2)OOC2(OO3)C3CC4CC(C3)CC2C4)c2nccc(Cl)c2c1 (stereo not drawn)
[12]
  CC50: > 50000 µM
[9]
  EC50: 0.075 µM
[13]
  EC50: 2.81 µM

## C[C@@H]1CC[C@H]2[C@@H](C)C(c3cccn3C)O[C@@H]3O[C@]4(C)CC[C@@H]1[C@]32OO4 (stereo partly drawn)
[14]
  ED50: 0.7 mg/kg
[15]
  IC50: 0.0046 µM

## COc1cc(NC(C)CCCNC(=O)C2CCC3(CC2)OOC2(OO3)C3CC4CC(C3)CC2C4)c2nccc(C(F)(F)F)c2c1 (stereo not drawn)
[12]
  CC50: > 50000 µM
[9]
  EC50: 0.06 µM
[13]
  EC50: 4.12 µM

## C[C@@H]1CC[C@H]2[C@@H](C)C(CCN3CCN(c4ccc(C(F)(F)F)cc4)CC3)O[C@@H]3O[C@]4(C)CC[C@@H]1[C@]32OO4 (stereo partly drawn)
[16]
  ED50: 6 mg/kg
[5]; Plasmodium falciparum, K1
  IC50: 0.00619 µM

## C[C@@H]1CC[C@H]2[C@@H](C)C(OCc3ccc(C(=O)N(CCNc4ccnc5cc(Cl)ccc45)CC(=O)NC(C)(C)C)cc3)O[C@@H]3O[C@]4(C)CC[C@@H]1[C@]32OO4.O=C(O)CC(O)(CC(=O)O)C(=O)O (stereo partly drawn)
[1]
  Ratio IC50: 0.7
[2]
  IC50: 0.4 equiv
[3]; hela
  IC50: 0.356 µM
[4]
  Ratio IC50: 20
[5]
  IC50: 0.018 µM
[6]
  IC50: 0.024 µM

## C=C(c1ccccc1)C1COC2(CCC(NCCCNc3ccnc4cc(Cl)ccc34)CC2)OO1 (stereo not drawn)
[11]
  Activity: 89%

## COc1cc(NC(C)CCCNC(=O)C2CCC3(CC2)OOC2(OO3)C3CC4CC(C3)CC2C4)c2nccc(F)c2c1 (stereo not drawn)
[12]
  CC50: > 50000 µM
[9]
  EC50: 0.057 µM
[13]
  EC50: 2.38 µM

## CC(C)C1=C[C@H]2OC3(CCC(NCCNc4ccnc5cc(Cl)ccc45)CC3)OO[C@@]2(C)CC1 (stereo partly drawn)
[17]
  IC50: 0.021 µM
[18]
  IC50: 0.009 µM
[19]
  IC50: 0.006 µM

## C[C@@H]1CC[C@H]2[C@@H](C)C(OCc3ccc(C(=O)N(CCNc4ccnc5cc(Cl)ccc45)CC(=O)NC4CCCCC4)cc3)O[C@@H]3O[C@]4(C)CC[C@@H]1[C@]32OO4 (stereo partly drawn)
[1]
  Ratio IC50: 1
[2]
  IC50: 0.45 equiv
[3]; Homo sapiens, HeLa
  IC50: 0.286 µM
[4]
  selectivity ratio: 12
[5]; Plasmodium falciparum, K1
  IC50: 0.023 µM
[6]; Plasmodium falciparum, D10
  IC50: 0.026 µM

## C[C@@H]1CC[C@H]2[C@@H](C)C(OCc3ccc(C(=O)N(CCCCNc4ccnc5cc(Cl)ccc45)CC(=O)NC4CCCCC4)cc3)O[C@@H]3O[C@]4(C)CC[C@@H]1[C@]32OO4 (stereo partly drawn)
[1]
  Ratio IC50: 0.88
[2]
  IC50: 0.31 equiv
[3]; Homo sapiens, HeLa
  IC50: 0.169 µM
[4]
  selectivity ratio: 8
[5]; Plasmodium falciparum, K1
  IC50: 0.021 µM
[6]; Plasmodium falciparum, D10
  IC50: 0.035 µM

## C[C@@H]1CC[C@H]2[C@@H](C)C(OC(=O)CCC(=O)O)(C(F)(F)F)O[C@@H]3O[C@]4(C)CC[C@@H]1[C@]32OO4 (stereo partly drawn)
[20]
  IC50: 0.0041 µM
[21]
  half-life: 30 h
